The test in a line: Inhibition of aromatase in human MCF7 cells.

Usually IC50 stands for the concentration that gives 50% inhibition. Lower therefore signals greater potency in that assay. Molecule `O=C1c2ccccc2OCC1c1ccc(Oc2ccccc2)cc1` (configuration not stated) returned an IC50 of 17 µM.

The molecule `O=C1c2ccccc2OCC1c1cccnc1` (configuration not stated) yielded an IC50 of 44 µM.
